The target in assay [1] is T1, SARS-CoV-2 Mpro (Severe acute respiratory syndrome coronavirus 2, UniProt P0DTD1). The assay is described as follows: Dose validation assay (10-point dose-response), fluorescent Mpro protease assay with Ac-Abu-Tle-Leu-Gln-AFC. In kind it is biochemical. Conditions: for IC50 / Hill Slope: 80nM Mpro, 32μM Ac-Abu-Tle-Leu-Gln-AFC, n = 3, 4-parameter nonlinear regression; for IC50: 10 concentrations 150 μM to 7.6 nM.

The target of assay [2] is T1, SARS-CoV-2 Mpro. In kind it is biochemical.
Assay [3] has as its system SARS-CoV-2. The note with it: cellular model of viral replication; read-out: EC50, SARS-CoV-2 antiviral activity; cited from earlier work.
The subject of assay [4] is HCV protease. Conditions: cited from earlier work.
The subject of assay [5] is NS3 protease variants. The note with it: HCV NS3 single amino acid mutations; cited from earlier work.
Assay [6] deals with Covid-19 patients. Also noted: method as in PMID 32445440. Conditions: cohort of 1062 patients, placebo control 15 days; cited from earlier work.
Setting [7] is: Z-score in the protease inhibition assay, ΔRFU at 10 minutes, 50 μM compound, substrate not stated.

Where two headings read alike, the source gives them in different places. Residues, ends and D or L forms follow the SMILES beside them. Some results are limits rather than exact numbers.

For the compound `O=c1c2ccccc2[se]n1-c1ccccc1` [Ebselen], the “dose response against Mpro cleavage of substrate Ac-Abu-Tle-Leu-Gln-AFC” value in assay [1] (result in words, S1 Fig) is recorded as “failed to show a significant dose response”.

A word on the IC50: it is the concentration needed to halve the response being measured. On to `CCOC(=O)c1ccc(N2NC(=O)/C(=C/c3ccc([N+](=O)[O-])o3)C2=O)cc1` [PYR-41], for which, in assay [1], the IC50 is 17.4 µM and the “Hill Slope” value stood at 0.9933.

Consider `C[C@H](NC(=O)[C@@H](Cc1c[nH]c2ccccc12)NC(=O)[C@@H](N)Cc1cnc[nH]1)C(=O)N[C@@H](Cc1c[nH]c2ccccc12)C(=O)N[C@H](Cc1ccccc1)C(=O)N[C@@H](CCCCN)C(N)=O` [U-75799E] (HELM PEPTIDE1{H.[dW].A.W.[dF].K.[am]}$$$$V2.0), for which the Z10 in assay [2] is 1.044.

As for `OC[C@H]1O[C@H]([S-])[C@H](O)[C@@H](O)[C@@H]1O.[Au+]` [aurothioglucose], in assay [1], half-maximal inhibition (IC50) was put at 13.3 µM and the “Hill Slope” value is on record as 1.496.

Usually EC50 stands for the midpoint of the concentration-response curve. As for `CC(C)(C)NC(=O)N[C@H](C(=O)N1C[C@H]2[C@@H]([C@H]1C(=O)NC(CC1CCC1)C(=O)C(N)=O)C2(C)C)C(C)(C)C` (stereo partly shown) [boceprevir], the “Hill Slope” value in assay [1] turned out to be 0.4123. Also, the “reduction in potency against enzymatic activity, SARS-CoV-2 Mpro compared to HCV protease” value in assay [1] (~1 μM for Mpro versus below 90 nM for HCV protease) was 10 fold. In addition, in assay [3], the EC50 is 1.95 ± 1.62 µM. Further, the half-inhibitory concentration (IC50) in assay [4] was below 0.09 µM. The “reduction in activity caused by single amino acid mutations” value in assay [5] was “up to 120 fold”.

On to `CCCC[C@@H](C=O)NC(=O)[C@H](CC(C)C)NC(=O)OCc1ccccc1` [calpeptin], for which the “Hill Slope” value in assay [1] is recorded as 1.009.

Take `COc1ccc2c(O[C@@H]3C[C@H]4C(=O)N[C@]5(C(=O)O)C[C@H]5/C=C\CCCCC[C@H](NC(=O)OC5CCCC5)C(=O)N4C3)cc(-c3csc(NC(C)C)n3)nc2c1` [ciluprevir]: in assay [1], the midpoint of inhibition, the IC50, lay at 20.8 µM and the “Hill Slope” value is 1.133.

Compound `CC(=O)N(CC(O)CN(C(C)=O)c1c(I)c(C(=O)NCC(O)CO)c(I)c(C(=O)NCC(O)CO)c1I)c1c(I)c(C(=O)NCC(O)CO)c(I)c(C(=O)NCC(O)CO)c1I` (stereo not shown) [iodixanol] registered a Z10 in assay [2] (setting [7]) of -0.9551.

In the case of `CCCC[C@H](NC(=O)[C@@H]1[C@@H]2[C@H](CN1C(=O)[C@@H](NC(=O)NC1(CS(=O)(=O)C(C)(C)C)CCCCC1)C(C)(C)C)C2(C)C)C(=O)C(=O)NC1CC1` [narlaprevir], in assay [1], the “Hill Slope” value turned out to be 0.9106.

Regarding `CCC(CC)COC(=O)[C@H](C)N[P@](=O)(OC[C@H]1O[C@@](C#N)(c2ccc3c(N)ncnn23)[C@H](O)[C@@H]1O)Oc1ccccc1` [remdesivir], in assay [6], the period of recovery is given as 10 days.

In the case of `CCC[C@H](NC(=O)[C@@H]1[C@H]2CCC[C@H]2CN1C(=O)[C@@H](NC(=O)[C@@H](NC(=O)c1cnccn1)C1CCCCC1)C(C)(C)C)C(=O)C(=O)NC1CC1` [telaprevir], in assay [1], the “Hill Slope” value is 1.062.

On to dalargin, for which the Z10 in assay [2] (setting [7]) is -1.032.

In the case of desmopressin-acetate, the Z10 in assay [2] (setting [7]) is given as -0.4942.

As to hemin, in assay [1], half-maximal inhibition (IC50) was put at 9.68 µM and the “Hill Slope” value stood at 1.354.
